In patent US11667652B2, “MCL1 inhibitors” (Gilead Sciences, Inc., priority 2019, dated 2023) one finds IC50 and EC50 data, which are given here for 31 compounds.

In one assay the target is MCL1/Bim (Homo sapiens (Human), UniProt Q07820). Description: MCL1/Bim Binding AlphaLISA Assay. The note with it: recombinant human 6xHis-MCL1 (171-327), biotinylated Bim peptide (51-76). As to the method:
MCL1/Bim Binding AlphaLISA Assay.
Inhibition of the MCL1 and Bim interaction was measured in the following AlphaLISA assay.
Recombinant human MCL1 protein (C-terminal 6×His Tagged MCL1 containing residues 171-327) was generated at Gilead Sciences, Inc. (Foster City, Calif.). A biotinylated peptide derived from human Bim (residues 51-76) was purchased from CPC Scientific (Sunnyvale, Calif.). (CPC 834113). AlphaLISA anti-6His- acceptor beads (AL128R), AlphaScreen Streptavidin donor beads (6760002B), and Proxiplate-384 Plus (6008289) were purchased from PerkinElmer.
The AlphaLISA assay was performed in a 384-well Proxiplate in a total volume of […]. The reaction mixture contained 0.0625 nM 6×His-MCL1 (171-327), 0.0625 nM biotinylated-Bim peptide, 10 μg/mL AlphaLISA anti-6×His-AlphaLISA acceptor beads, 40 μg/mL AlphaScreen streptavidin donor beads, and serially diluted test compounds in the binding buffer (20 mM Hepes, pH 7.5 (Teknova H1035); 150 mM NaCl (Promega V4221); 0.002% Brij 35 (Thermo Scientific 20150); 1 mM Dithiothreitol (DTT) Solution (Affymetrix 70726); 0.01% BSA (BioLabs B9000S)). 1,000× test compounds were pre-spotted onto 384-well Proxiplate (Labcyte Echo) by Echo 555 Liquid Handler (Labcyte Inc., San Jose, Calif.) followed by incubation of 5 μL MCL1(171-327) for 1 hour. Then 5 μL Bim (51-76) was added and incubated for 2 hours. Five μL AlphaLISA anti-6His-AlphaLISA acceptor beads were then added for 1 hour followed by addition of 5 μL AlphaScreen streptavidin donor beads for 1 hour. The reaction plates were then read on an Envision multimode reader (PerkinElmer) using AlphaScreen settings. Percent inhibition was calculated as shown below: % Inhibition=100%*(Well−Neg)/(Pos−Neg) Neg: negative control, DMSO Pos: positive control, no MCL1 protein, no biotinylated-Bim peptide
In general terms: Bead proximity is the source of the signal in Alpha formats.

Another assay relates to SKBR3 cells. In words: SKBR3 Cell Viability Assay. It is filed as cell-based. To be noted: Homo sapiens, SK-BR-3, 72 hours, CellTiter Glo, read-out: MCL1 CV SKBR3 EC50. On the procedure:
SKBR3 Cell Viability Assay Materials
SKBR3 Cells (ATCC HTB-30) were obtained from ATCC (Manassas, Va.) and cultured in McCoy 5A's medium (ATCC 30-2007)+10% fetal bovine serum (SH30071.03, HyClone, Pittsburgh, Pa.) plus 1× Penicillin-Streptomycin L-glutamine (Corning 30-009-CI, Corning, N.Y.).
The cell viability assay was conducted in a 384-well tissue culture plate (Grenier 781086, Monroe, N.C.) in a total volume of 70 μL. Test compounds were prepared in 1,000×, serially diluted, and pre-spotted into 384-well tissue culture plate by Echo 555 Liquid Handler (Labcyte Inc., San Jose, Calif.). Seventy μL of 6,000 SKBR3 cells were dispensed into each well of the plate and incubated at 37° C. with 5% CO2 for 72 hours. At the end of incubation, 2× CellTiter Glo (CTG) reagents (1 part buffer with 2 parts substrate) (Promega, Madison, Wis.) were prepared, and the plate and the reagent were equilibrated to room temperature for 30 minutes. CTG reagent was added to each plate by Biomek FX at 20 μL/well with 5 times pipetting and mixing to induce cell lysis. Luminescence was read by Envision multimode reader (PerkinElmer). Percent inhibition was calculated as followed: % Inhibition=100%*(Well−Neg)/(Pos−Neg) Neg, negative control, DMSO Pos, positive control, 10 μM Puromycin

Sequence of MCL1/Bim (Q07820 171-327): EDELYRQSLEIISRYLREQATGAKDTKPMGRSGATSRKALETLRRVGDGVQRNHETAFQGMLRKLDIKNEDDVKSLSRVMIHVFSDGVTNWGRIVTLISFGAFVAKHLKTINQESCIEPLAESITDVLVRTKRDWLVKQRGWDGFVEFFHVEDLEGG

The term IC50 denotes the point on the concentration scale where inhibition reaches its midpoint. As usually defined, the EC50 is the concentration needed to bring the measured effect to its halfway point. Turning to `C[C@H]1C/C=C/[C@H](O)[C@@H]2CC[C@H]2CN2C[C@@]3(CCCc4cc(Cl)ccc43)COc3ccc(cc32)C(=O)N=[S@](=O)(Nc2nc3nnnn3c3nn(C)cc23)C1` (mixture of isomers) [Example 31], the IC50 on MCL1/Bim was 0.064 nM. Also, the EC50 with SKBR3 cells was 4390 nM.

For the compound `COc1nn(C)cc1C(=O)N[S@@]1(=O)=NC(=O)c2ccc3c(c2)N(C[C@@H]2CC[C@H]2[C@@H](OCC(O)CO)/C=C/C[C@H](C)C1)C[C@@]1(CCCc2cc(Cl)ccc21)CO3` (mixture of isomers) [Example 57], at MCL1/Bim, the IC50 came to 0.089 nM.

With `COc1nn(C)cc1C(=O)N[S@@]1(=O)=NC(=O)c2ccc3c(c2)N(C[C@@H]2CC[C@H]2[C@@H](OC)C/C=C\[C@H](C)C1)C[C@@]1(CCCc2cc(Cl)ccc21)CO3` (mixture of isomers) [Example 128], at MCL1/Bim, the IC50 was 0.562 nM.

In the case of `CO[C@H]1/C=C/C[C@H](C)C[S@@](=O)(Nc2ncc(C#N)cn2)=NC(=O)c2ccc3c(c2)N(C[C@@H]2CC[C@H]21)C[C@@]1(CCCc2cc(Cl)ccc21)CO3` [Example 2], the IC50 at MCL1/Bim amounted to 1.89 nM.

As for `CO[C@H]1/C=C/C[C@H](C)C[S@@](=O)(Nc2ncccn2)=NC(=O)c2ccc3c(c2)N(C[C@@H]2CC[C@H]21)C[C@@]1(CCCc2cc(Cl)ccc21)CO3` [Example 3], the IC50 at MCL1/Bim amounted to 0.957 nM.

For `CO[C@H]1/C=C/C[C@H](C)C[S@@](=O)(Nc2nccc3nn(C)cc23)=NC(=O)c2ccc3c(c2)N(C[C@@H]2CC[C@H]21)C[C@@]1(CCCc2cc(Cl)ccc21)CO3` [Example 7], the IC50 at MCL1/Bim was determined as 1.74 nM.

`CO[C@H]1/C=C/C[C@H](C)C[S@@](=O)(Nc2nc(O)nc3nn(C)cc23)=NC(=O)c2ccc3c(c2)N(C[C@@H]2CC[C@H]21)C[C@@]1(CCCc2cc(Cl)ccc21)CO3` [Example 11]: at MCL1/Bim, the IC50 is 0.183 nM.

In the case of `CO[C@H]1/C=C/C[C@H](C)C[S@@](=O)(Nc2cccnn2)=NC(=O)c2ccc3c(c2)N(C[C@@H]2CC[C@H]21)C[C@@]1(CCCc2cc(Cl)ccc21)CO3` [Example 13], at MCL1/Bim, the IC50 was determined as 2.12 nM.

Regarding `COCCn1cc2c(N[S@@]3(=O)=NC(=O)c4ccc5c(c4)N(C[C@@H]4CC[C@H]4[C@@H](OC)/C=C/C[C@H](C)C3)C[C@@]3(CCCc4cc(Cl)ccc43)CO5)ncnc2n1` [Example 14], the IC50 at MCL1/Bim turned out to be 0.965 nM.

For `CO[C@H]1/C=C/C[C@H](C)C[S@@](=O)(Nc2nc(Cl)nc3cn(C)nc23)=NC(=O)c2ccc3c(c2)N(C[C@@H]2CC[C@H]21)C[C@@]1(CCCc2cc(Cl)ccc21)CO3` [Example 16], the EC50 with SKBR3 cells turned out to be 8140 nM.

On to `CO[C@H]1CCC[C@H](C)C[S@@](=O)(Nc2ncnc3nn(C)cc23)=NC(=O)c2ccc3c(c2)N(C[C@@H]2CC[C@H]21)C[C@@]1(CCCc2cc(Cl)ccc21)CO3` [Example 28], for which, at MCL1/Bim, the IC50 is 0.12 nM.

Turning to `COc1nn(C)cc1C(=O)N[S@@]1(=O)=NC(=O)c2ccc3c(c2)N(C[C@@H]2CC[C@H]2[C@@H](O)C#CC[C@H](C)C1)C[C@@]1(CCCc2cc(Cl)ccc21)CO3` [Example 35], the IC50 at MCL1/Bim came out at 0.043 nM.

For `COc1nn(C)cc1C(=O)N[S@@]1(=O)=NC(=O)c2ccc3c(c2)N(C[C@@H]2CC[C@H]2[C@H](OC)C#CC[C@H](C)C1)C[C@@]1(CCCc2cc(Cl)ccc21)CO3` [Example 38], the IC50 at MCL1/Bim amounted to 0.11 nM.

As to `COC[C@@H]1CC=C[C@@H](OC)[C@@H]2CC[C@H]2CN2C[C@@]3(CCCc4cc(Cl)ccc43)COc3ccc(cc32)C(=O)N=[S@](=O)(NC(=O)COC2CCOCC2)C1` [Example 44], at MCL1/Bim, the IC50 is 0.648 nM.

For the compound `COC[C@H]1C/C=C/[C@H](OC)[C@@H]2CC[C@H]2CN2C[C@@]3(CCCc4cc(Cl)ccc43)COc3ccc(cc32)C(=O)N=[S@@](=O)(NC(=O)COC2CCOCC2)C1` [Example 45], on MCL1/Bim, the IC50 came to 0.088 nM.

Regarding `COc1nn(C)cc1C(=O)N[S@@]1(=O)=NC(=O)c2ccc3c(c2)N(C[C@@H]2CC[C@H]2[C@@H](OCCN2CCN(C)CC2)/C=C/C[C@H](C)C1)C[C@@]1(CCCc2cc(Cl)ccc21)CO3` [Example 59], the IC50 at MCL1/Bim amounted to 0.076 nM.

In the case of `CO[C@H]1/C=C/[C@H](OC)[C@H](C)C[S@@](=O)(Nc2ncnc3nn(C)cc23)=NC(=O)c2ccc3c(c2)N(C[C@@H]2CC[C@H]21)C[C@@]1(CCCc2cc(Cl)ccc21)CO3` [Example 67], at MCL1/Bim, the IC50 is 0.06 nM.

Turning to `COc1nn(C)cc1C(=O)N[S@@]1(=O)=NC(=O)c2ccc3c(c2)N(C[C@@H]2CC[C@H]2[C@@H](OC(=O)c2cn(C)nc2OC)/C=C/[C@H](O)[C@H](C)[C@H]1C)C[C@@]1(CCCc2cc(Cl)ccc21)CO3` [Example 89], on MCL1/Bim, the IC50 is 0.53 nM.

As for `COc1nn(C)cc1C(=O)N[S@@]1(=O)=NC(=O)c2ccc3c(c2)N(C[C@@H]2CC[C@H]2[C@@H](OC(=O)c2cn(C)nc2OC)CC[C@H](O)[C@H](C)[C@H]1C)C[C@@]1(CCCc2cc(Cl)ccc21)CO3` [Example 90], at MCL1/Bim, the IC50 was 2.19 nM.

Regarding `COc1nn(C)cc1C(=O)N[S@@]1(=O)=NC(=O)c2ccc3c(c2)N(C[C@@H]2CC[C@H]2[C@@](C)(O)/C=C/C[C@H](C)C1)C[C@@]1(CCCc2cc(Cl)ccc21)CO3` [Example 94], the IC50 at MCL1/Bim turned out to be 0.084 nM.

For `COc1nn(C)cc1C(=O)N[S@@]1(=O)=NC(=O)c2ccc3c(c2)N(C[C@@H]2CC[C@H]2[C@](O)(CC(=O)N2CC(N4CCOCC4)C2)/C=C/C[C@H](C)C1)C[C@@]1(CCCc2cc(Cl)ccc21)CO3` [Example 107], the IC50 at MCL1/Bim amounted to 0.036 nM.

With `COc1nn(C)cc1C(=O)N[S@@]1(=O)=NC(=O)c2ccc3c(c2)N(C[C@@H]2CC[C@H]2[C@@H](OC)[C@H](O)[C@@H](O)C[C@H](C)C1)C[C@@]1(CCCc2cc(Cl)ccc21)CO3` [Example 125], the IC50 on MCL1/Bim was determined as 0.051 nM.

Take `COc1nn(C)cc1C(=O)N[S@@]1(=O)=NC(=O)c2ccc3c(c2)N(C[C@@H]2CC[C@H]2[C@H](OC)[C@H](O)[C@@H](O)C[C@H](C)C1)C[C@@]1(CCCc2cc(Cl)ccc21)CO3` [Example 126]: the IC50 on MCL1/Bim is 0.13 nM.

With `COc1nn(C)cc1C(=O)N[S@@]1(=O)=NC(=O)c2ccc3c(c2)N(C[C@@H]2CC[C@H]2[C@@H](OC)/C=C/[C@H](F)[C@H](C)C1)C[C@@]1(CCCc2cc(Cl)ccc21)CO3` [Example 127], the IC50 at MCL1/Bim worked out at 0.059 nM.

Consider `CCCO[C@H]1/C=C/[C@H](OC)[C@@H]2CC[C@H]2CN2C[C@@]3(CCCc4cc(Cl)ccc43)COc3ccc(cc32)C(=O)N=[S@](=O)(NC(=O)c2cn(C)nc2OC)C[C@H]1C` [Example 144], for which, at MCL1/Bim, the IC50 stood at 0.202 nM.

On to `CO[C@H]1/C=C/C[C@H](C)[C@@H](C)[S@@](=O)(NC(=O)c2cnn(C)c2)=NC(=O)c2ccc3c(c2)N(C[C@@H]2CC[C@H]21)C[C@]1(CO3)C[C@@H]2C[C@@H]2c2cc(Cl)ccc21` [Example 171], for which the IC50 at MCL1/Bim was found to be 0.176 nM.

With `CO[C@H]1/C=C/C[C@H](C)C[S@@](=O)(NC(=O)NC2CC2)=NC(=O)c2ccc3c(c2)N(C[C@@H]2CC[C@H]21)C[C@]1(CO3)SCCc2cc(Cl)ccc21` [Example 177], the IC50 on MCL1/Bim came to 0.09 nM.

As for `CO[C@H]1/C=C/CCC[S@@](=O)(NC(=O)c2cnn(C)c2)=NC(=O)c2ccc3c(c2)N(C[C@@H]2CC[C@H]21)C[C@]1(CO3)SCCc2cc(Cl)ccc21` [Example 182], on MCL1/Bim, the IC50 is 0.06 nM.

For the compound `CO[C@H]1/C=C/C[C@H](C)C[S@@](=O)(Nc2ncnc3nn(C)cc23)=NC(=O)c2ccc3c(n2)N(C[C@@H]2CC[C@H]21)C[C@@]1(CCCc2cc(Cl)ccc21)CO3` [Example 194], the half-inhibitory concentration (IC50) on MCL1/Bim worked out at 0.1 nM.

Regarding `CCn1cc(C(=O)N[S@@]2(=O)=NC(=O)c3ccc4c(n3)N(C[C@@H]3CC[C@H]3[C@@H](OC)/C=C/C[C@H](C)[C@H]2C)C[C@@]2(CCCc3cc(Cl)ccc32)CO4)cn1` [Example 199], the IC50 on MCL1/Bim was found to be 0.17 nM.

Turning to `CO[C@H]1/C=C/C[C@H](C)[C@@H](C)[S@@](=O)(NC(=O)c2cc3n(c2)CCOC3)=NC(=O)c2ccc3c(n2)N(C[C@@H]2CC[C@H]21)C[C@@]1(CCCc2cc(Cl)ccc21)CO3` [Example 202], the IC50 on MCL1/Bim amounted to 0.2 nM.
